“Also recorded” adds a separate entry of the source. Ends that are not written are not given here. C(Compound (Ia)-maleimide) = not defined here
Columns and labels:
[1] = DR2/TCR transgenic mice and other EAE models, from a mean score of ~4; cited from earlier work
[2] = 20 mg daily subcutaneously over two years; cited from earlier work
MGAR cells = test: Cellular assay: MBP peptide loading on MGAR cells, FACS labeling with MK16 mAb; type: cell-based, human; conditions: for activity relative to Compound (Ia) in loading of MBP peptide to DR2: MGAR cells, MBP peptide 1 μM, FIG. 13B, 14B
Procedure: The cells were then labeled with biotinylated MK16 Fab and streptavidin-APC and analyzed by FACS. Cells not pulsed with peptide (green line) were used as a negative control to define background labeling of MK16.
(§1) MGAR cells were incubated with MBP peptide (1 μM) in the presence of different compounds and the amount of DR2 bound peptide was determined by FACS labeling with the MK16 mAb.
as §1, §1

DR2 [3] = target: T1, DR2 (Homo sapiens, UniProt P01903+P01911); test: Real-time fluorescence polarization peptide binding assay (DR2/CLIP plus Alexa-488 labeled MBP peptide)
DR2/CLIP = target: T2, DR2/CLIP (Homo sapiens, UniProt P01903+P01911); test: Competition for binding of labeled MBP peptide to DR2/CLIP in the FP assay; conditions: 10 nM MBP-488, 100 nM DR2/CLIP, wide dose range
T2 construct: we generated DR/CLIP complexes as soluble molecules in CHO cells; CLIP peptide (of invariant chain, CD74) joined through a linker with a thrombin cleavage site (N, cleaved yes); made in house
Procedure: Competitor peptides were tested over a wide dose range against 10 nM MBP-488 and 100 nM DR2/CLIP in the FP assay.
Compound (Ia)-glatiramer acetate compounds are characterized for their ability to compete for binding of the Alexe™-488 labeled MBP peptide to DR2 in the FP assay, as well as for their ability to inhibit presentation of the MBP peptide to human MBP specific T cell clones, as described in detail above.

[4] = tested on: DR2/MBP specific T cell hybridoma; test: T cell assay: IL-2 release by DR2/MBP specific T cell hybridoma, MBP (85-99) presented by MGAR cells; type: cell-based; conditions: MGAR cells as APC
Procedure: Peptide presentation of MBP (85-99) to T cell hybridomas by MGAR cells was measured by IL-2 release.

DR2 [5] = target: T1, DR2; test: Dissociation of pre-bound Alexa-488 labeled MBP peptide from DR2 followed by fluorescence polarization; type: biochemical; design: we generated DR/CLIP complexes as soluble molecules in CHO cells; CLIP peptide (of invariant chain, CD74) joined through a linker with a thrombin cleavage site (N, cleaved yes); made in house; conditions: for displacement (dissociation) of labeled MBP peptide from DR2 by competitor: competitor 50 μM, 150 nM DR2/50 nM Alexa-488 MBP
Procedure: We also examined whether Compound (Ia) could induce the release of a previously bound high affinity peptide from DR2 as shown in FIG. 4B. This issue is important for potential applications of this small molecule because most DR molecules are occupied by intermediate to high affinity peptides. Applicants therefore loaded the DR2 molecule with the high affinity Alexa™-488 MBP peptide during an overnight incubation and then examined if Compound (Ia) could induce dissociation of this labeled peptide. A molar excess of an unlabeled MBP peptide was added to inhibit rebinding of the labeled peptide to DR2. […] Compound (Ia) thus substantially accelerates peptide binding by creating empty DR molecules.
We then tested the concept of “self-catalyzed peptide loading” by synthesizing the MBP peptide with an N-terminal or C-terminal cysteine to which the Compound (Ia)-maleimide was linked. These peptide-Compound (Ia) compounds were purified by reverse-phase HPLC and their identity verified by mass spectrometry. Applicants then examined whether the linked Compound (Ia) group could displace a high affinity peptide from the DR2 binding site. For that purpose, we loaded DR2 (1.5 μM) with the Alexa™-488 labeled MBP peptide (500 nM) at 37° C. for 5 hours. The complex was then diluted to 150 nM DR2/50 nM Alexa™-488 and added to a 384-well plate in a volume of 40 μl.

empty DR2 molecules = target: T3, empty DR2 molecules (Homo sapiens, UniProt P01903+P01911); test: Association of Alexa-488 MBP peptide to empty DR2 molecules after photo-cleavage of bound peptide (FP); type: biochemical; conditions: photo-cleaved bound peptide, with versus without compound
T3 construct: we generated DR/CLIP complexes as soluble molecules in CHO cells; CLIP peptide (of invariant chain, CD74) joined through a linker with a thrombin cleavage site (N, cleaved yes); made in house
Excerpt: DM acts as a catalyst that accelerates peptide binding reactions and increases both the rate of peptide dissociation and association. […] Rigorous testing of this hypothesis required generation of empty DR molecules, a task that is challenging because DR molecules aggregate over time in the absence of peptide. Applicants therefore synthesized a peptide with a photo-cleavable residue (a derivative of phenylalanine), so that the binding site could be rapidly vacated by peptide cleavage. This approach has been reported for the creation of empty MHC class I molecules (Toebes et al., 2006, Nat. Med., 12:246-251). The photoreactive group [3-amino-3-(2-nitro) phenyl-propionic acid; […]] was placed at the P4 position of the peptide, close to the center of DR2 bound peptide. The peptide also carried an N-terminal DNP group for affinity isolation of the complex generated with this peptide. […] Applicants then loaded this peptide onto DR2 molecules, isolated the complex by DNP affinity chromatography, irradiated the samples at 360 nm at 4° C., added Alexa™-488 labeled MBP and tracked its association to DR2 by FP in the presence and absence of Compound (Ia). Applicants observed a striking Compound (Ia)-induced acceleration of Alexa™-488 MBP association to DR2 when the bound peptide was photo-cleaved compared to reactions with photo-cleavage but no Compound (Ia) as diagrammed in FIG. 5. […]

[6] = mouse, in vivo
Excerpt: An important aspect of the medicinal chemistry effort is a thorough analysis of potential in vivo toxicity.

dendritic cells = test: Peptide presentation by dendritic cells in vivo (MK16 labeling of draining lymph node cells); conditions: co-administered at 50-200 μM s.c. with MBP peptide
Excerpt: Applicants next established the higher levels of peptide presentation in the presence of Compound (Ia) in human antigen presenting cells (APCs). The goal of these experiments is to examine whether Compound (Ia) covalently linked to the MBP peptide (abbreviated as Compound (Ia)*MBP peptide) and Compound (Ia) co-administered with peptide (Compound (Ia)+MBP peptide) enhance binding to MHC-II in vivo compared to unmodified peptide. The MK16 mAb (Krogsgaard et al., 2000, J. Exp. Med., 191:1395-1412) is used to directly quantify DR2/MBP peptide complexes on the surface of dendritic cells in lymph nodes draining the s.c. injection site. Lymph nodes are dissected 24 hours following injection of peptides in PBS and cell suspensions are labeled with CD11c (dendritic cells), MK16 (DR2/MBP), and Annexin-V (exclusion of apoptotic cells) for FACS analysis. The efficacy of Compound (Ia)*MBP peptide and unmodified MBP peptide are compared at concentrations ranging from 1 to 100 μM administered s.c. in the flank in 0.2 ml of PBS. In the co-administration mode, Compound (Ia) is added to the inoculum at concentrations of 50-200 μM.

CD4 T cell response = test: Immunization of HLA-DR4 transgenic mice with viral and tumor peptides, CD4 T cell response; type: in vivo; conditions: co-administered with or covalently linked to peptide
Excerpt: HLA-DR4 transgenic mice (DRA, DRB1*0401) are used to examine whether Compound (Ib), Compound (Ia) and the other compounds enhance the CD4 T cell response following immunization with viral and tumor peptides. Mice are immunized with peptides from two human pathogens (HIV and HCV) as well as peptides from two human tumor antigens (annexin V and gp100, identified in human melanomas). Applicants have previously performed binding studies with these peptides and shown that they bind with high affinity to DR4. The T cell response is analyzed in two different assays. First, the frequency of peptide-specific T cells is analyzed in draining lymph nodes with DR4/peptide tetramers. This approach provides a quantitative readout of the induced T cell response. Second, the cytokine production profile of these T cells is determined following a 48 hour in vitro re-stimulation with the relevant peptide. The cytometric bead array technique is utilized for comprehensive definition of the cytokine repertoire. Either Compound (Ia) is co-administered with the peptide of interest in the adjuvant or peptides are utilized with a covalently linked Compound (Ia) group (or other groups, depending on which one is being tested). […] These experiments are expected to establish the in vivo efficacy of Compound (Ia) and to establish appropriate dosing and administration procedures with rapid, quantitative readouts. […]

glatiramer acetate
mean EAE score under treatment [1]: ~2 | reduction of relapse rate [2]: 29%

O=C(Cc1c(C(=O)O)[nH]c2ccccc12)Nc1ccc(Cl)c(Cl)c1 [Compound (Ic)]
activity relative to Compound (Ia) in loading of MBP peptide to DR2 (MGAR cells): higher activities than Compound (Ia)

O=C(Cc1c(C(=O)O)[nH]c2c(F)c(F)c(F)cc12)Nc1ccc(Cl)c(Cl)c1 [Compound (Ib)]
activity relative to Compound (Ia) in loading of MBP peptide to DR2 (MGAR cells): substantially higher activity than Compound (Ia) | fold higher activity than Compound (Ia) in catalyzing loading of the MBP peptide to DR2 (DR2 [3]; biochemical assay): 4.2 fold

MBP-C-Compound (Ia): MBP peptide with a C-terminal cysteine to which the Compound (Ia)-maleimide was linked (PGSRPHLIRLFSRDA-{C(Compound (Ia)-maleimide)}; reading uncertain; UniProt P02686 85-99, looked up, fragment)
competition against labeled MBP peptide for DR2/CLIP (DR2/CLIP): more effective competitor than unmodified MBP peptide | IL-2 production by T cell hybridoma [4]: higher levels of IL-2 production | displacement (dissociation) of labeled MBP peptide from DR2 by competitor (DR2 [5]; listed as MBP peptide with C-terminally linked Compound (Ia)): more effective in displacing the labeled peptide; also recorded: more favorable

O=C(Cc1c(C(=O)O)[nH]c2c(F)c(F)c(F)cc12)Nc1ccc(F)c(Cl)c1 [Compound (Id)]
activity relative to Compound (Ia) in loading of MBP peptide to DR2 (MGAR cells): higher activities than Compound (Ia)

O=C(Cc1c(C(=O)O)[nH]c2ccc(Cl)cc12)Nc1ccc(F)c(Cl)c1 [Compound (Ia)]
peptide association to empty DR2 molecules (empty DR2 molecules): substantially accelerated peptide association to empty DR2 molecules | lowering of the dose of peptide required for equivalent staining / presentation (MGAR cells; 1 μM MBP peptide plus compound versus 10 μM peptide alone): approximately 10 fold | presentation of MBP on MGAR cells (MK16 staining) (MGAR cells; 100 μM compound, 1.7 μM MBP peptide, 30 minutes at 37° C.): significantly increased | acute toxicity, observation of mice [6]: no sips of distress | loading of peptides on dendritic cells in vivo (dendritic cells): increases loading of peptides in a dose-dependent manner | CD4 T cell response following immunization (CD4 T cell response): substantial enhancement | fold increase of the initial rate of peptide association (DR2 [3]; neutral pH): 22 fold | time to reach half-maximal peptide association (DR2 [3]; pH 5.2, absence of DM, compound at 109 μM (160 minutes without compound)): 7 min | rate of peptide binding reaction compared to DM (DR2 [3]; pH 5.2, higher compound concentrations): faster than in the presence of DM | pH of maximum activity (DR2 [3]; pH range 3.75-7.0): 5.25 | fold increase of the initial rate of peptide association (DR2 [3]; pH range from pH 4.5 to 5.75): more than 58 fold | dissociation of previously bound high affinity labeled MBP peptide from DR2 (DR2 [5]; excess unlabeled MBP peptide, versus DMSO control): marked acceleration of peptide dissociation | concentration range inducing peptide dissociation (DR2 [5]; release of high affinity peptides from DR2): low micro-molar range

MBP peptide without linked Compound (Ia): unmodified myelin basic protein (85-99) peptide that binds with high affinity to DR2 (PGSRPHLIRLFSRDA; UniProt P02686 85-99, looked up, fragment) [reference compound]
displacement (dissociation) of labeled MBP peptide from DR2 by competitor (DR2 [5]): slow dissociation
